Assays:
[1] = tested on: UVB-induced wrinkles; experiment: UVB-induced wrinkles in nude mice, appearance photographed; format: in vivo; details: 8-week UVB, then ointment plus microneedle twice a week for 2 weeks; FIG. 4
Excerpt: (§1) Six-week-old female nude mice (BALB/cAnN.Cg-Foxn1nu/CrlNarl) were irradiated with ultraviolet B (UVB) on the back 5 times a week for an eight-week period using a bank of five UVB lamps (model XL-1000B, Spectrolinker™ apparatus; emission peak: 312 nm), placed about 20 cm above the backs of the animals. During the UVB exposure, the mice were allowed to move freely within the cage. The irradiation intensity represented as the minimal erythe al dose (MED) was set at 1 MED during the first 2 weeks (60 mJ/cm^2), and was progressively elevated to 2 MED (120 mJ/cm^2) in the 3rd-4th week, to 3 MED (180 mJ/cm^2) in the 5th-6th week, and to 4 MED (240 mJ/cm^2) during the 7th-8th weeks of the experiment. After the 8-week UVB exposure, animals developed noticeable wrinkles and were subsequently randomly divided into the following 4 groups, with 3 mice in each group. In the UVB/vehicle, UVB/29-mer, UVB/20-mer, and UVB/18-mer groups, 350 μl of ointment (containing DMSO, 29-mer, 20-mer or 18-mer PEDF) was applied to the dorsal skin and then transdermal delivery was achieved by punching the ointment treated skin with the microneedle patch. Also, mice that were not subjected to UVB radiation were used as control (Normal). The ointment/microneedle treatment was given twice a week for 2 weeks. Mice were intraperitoneally given BrdU and euthanized at 16 hours after the last treatment. Skin sections were stained for vimentin and BrdU. The level of BrdU- and vimentin-double positive cells was expressed as the percentage of BrdU- and vimentin-double positive cells per total vimentin-positive cells (the BrdU/Vimentin Labeling Index).
Formation of wrinkles is closely related to repetitive exposure to UVB irradiation. […] In this working example, we investigated the anti-wrinkle effect of present PEDF peptides in nude (i.e, hairless) mice. Wrinkles were induced by an eight-week UVB irradiation according to the procedure set forth in Example 3.3 above. […]

[2] = tested on: dermal fibroblasts; experiment: Dermal fibroblast proliferation in photo damaged (UVB irradiated) skin in vivo, BrdU/vimentin staining; set-up: species or system nude mice (BALB/cAnN.Cg-Foxn1nu/CrlNarl); details: for BrdU/Vimentin Labeling Index (%): after 8-week UVB, ointment plus microneedle twice a week for 2 weeks
Protocol: For animal study, BrdU was reconstituted in DMSO as stock (80 mM). 10 μl of BrdU stock mixed with 90 μl of PBS was intraperitoneally injected into mouse at 16 hours prior to euthanasia. Formalin-fixed, paraffin-embedded skin specimens were deparaffinized in xylene and rehydrated in a graded series of ethanol. The specimens were then exposed to 1 N HCl at room temperature for 1 hour for subsequent immunofluorescence study.
BrdU-labeled DNA was detected by polyclonal anti-BrdU antibody and rhodamine-conjugated donkey anti-rabbit IgG. Nuclei were counterstained with Hoechst 33258 (blue).
as §1

[3] = tested on: MMP-13; experiment: UVB-induced MMP-13 mRNA expression in primary mouse dermal fibroblasts, RT-PCR; format: cell-based; details: for MMP-13 Expression Level (%): mRNA, Vehicle/UVB set to 100%; for effect on UVB-induced upregulation of MMP-13: cells pretreated with peptide
Protocol: Full-thickness skin tissue was obtained from the dorsum of C57BL/6 mouse. The subcutaneous tissue was carefully dissected from the skin and washed three times in sterile phosphate-buffered saline (PBS). The tissue was then cut into small pieces (1-2 mm^3). After being digested with 0.1% dispase at 4° C. overnight, the epidermal layers were removed, and the remaining dermal parts were further digested with 0.1% collagenase I at 37° C. for another 4 hours. The digested cells were then collected by centrifugation (400 g for 5 minutes) and resuspended in high-glucose DMEM supplemented with 10% FBS, 2 mM L-glutamine, and 1% penicillin-streptomycin antibiotic mixture. Cells were seeded onto tissue-culture plates (Falcon Labware; NJ, USA) at 1×10^3 cells/cm^2 and maintained at 37° C. with 5% CO2. After 24 hours, the medium was discarded to remove residual non-adherent cells, and cell culture was replenished with a fresh medium. For passage, near-confluent cells were harvested with 0.25% trypsin/EDTA.
The total RNA was extracted from cells using the TRIzol (Invitrogen) and treated with RNase-free DNase I (Qiagen, Santa Clarita, Calif.) to remove genomic DNA and then purified with an RNA purification kit (Dynabeads; Invitrogen). 1 μg of total RNA retrieved from primary dermal fibroblast was reverse-transcribed into cDNA by 200 units of expand Reverse-Transcriptase (Roche, Mannheim, Germany) in 20 μl of reaction buffer containing 0.25 μg of random primers and 0.8 mM dNTPs at 42° C. for 1 hour. 2 μl of the cDNA was used for the PCR reaction as templates. PCR was performed in a 30 μl volume containing 15 μl of EconoTaq® PLUS GREEN 2× Master Mix (Lucigen® Corp.), 1 μM of each primer and 2 μl of template DNA. cDNA was synthesized in an 18-22 cycle amplification reaction (denaturation, 20 s, 94° C.; annealing, 30 s, 57° C.; and polymerization, 40 s, 72° C.). The number of cycles for the primer set was chosen to be in the linear range of amplification. The sequences of specific PCR primers were mouse MMP-13 (accession number: NM_008607) sense, […] (SEQ ID NO: 12); antisense, […] (SEQ ID NO: 13); PCR product: 201 bp; and mouse glyceraldehyde 3-phosphate dehydrogenase (GAPDH; accession number: M32599) sense, […] (SEQ ID NO: 14); and anti-sense, […] (SEQ ID NO: 15); PCR product: 223 bp.). The PCR products were electrophoresed in a 2% agarose gel containing ethidium bromide and visualized by UV illumination. The intensities of the PCR products were quantified densitometrically using a FUJI LAS-3000 system and Multi Gauge Ver. 1.01 software (Fujifilm, Tokyo, Japan).
Primary mouse dermal fibroblasts in passage 2 of monolayer cultures were incubated with 1% FBS-DMEM supplemented with or without 100 nM PEDF peptide for 24 hours, and then subjected to UVB irradiation as described above. After UVB irradiation, PBS was replaced with 1% FBS-DMEM with or without PEDF peptide for further 24 hours, and then cellular total RNAs were extracted for subsequent RT-PCR analysis. The expression level of MMP-13 mRNA was normalized with the expression level in the Vehicle/UVB group (set to 100%), and quantitative results are summarized in Table 7.

[4] = after UVB exposure, transdermal delivery
[5] = 100 nM peptide 24 h before and 24 h after UVB 15 mJ/cm^2

Substance | wrinkle appearance after 2-week treatment [1] | BrdU/Vimentin Labeling Index (%) [2] [%] | proliferative activity of dermal fibroblasts relative to UVB/vehicle group [2, 4] | MMP-13 Expression Level (%) [3, 5] [%] | MMP-13 Expression Level (%) ([3]; 100 nM peptide, no UVB irradiation) | effect on UVB-induced upregulation of MMP-13 [3] | effect on dermal fibroblast proliferation in UVB-damaged skin [2, 4]
Ac-SLGAEQRTESIIHRALYYDLISSPDIHGT-NH2 [29-mer] | wrinkle lines were fewer and finer | 5.2 ± 1.9 | about 2.5 fold | 15.8 ± 1.8 | 4.8 ± 0.63 | substantially reduced | –
SLGAEQRTESIIHRALYYDL [20-mer, synthetic peptide corresponding to residues 93-112 of human PEDF] | wrinkle lines were fewer and finer | 5.9 ± 1.3 | about 2.5 fold | 15.8 ± 3.3 | – | substantially reduced | –
EQRTESIIHRALYYDLIS [18-mer] | not capable of reducing the wrinkles | 2.0 ± 0.8 | – | 103.3 ± 7.8 | – | unable to reduce the UVB-induced upregulation | failed to promote the dermal fibroblast proliferation
